Source: patent US8263762B2, “Alkoxy-carbonyl-amino-alkynyl-adenosine compounds and derivatives thereof as A2AR agonists” (Dogwood Pharmaceuticals, Inc., priority 2009, dated 2012)

Test system: Japanese white rabbits
Assay: Test for intraocular pressure reduction using Japanese white rabbits
Assay type: in vivo
Protocol: (1) Test for intraocular pressure reduction using Japanese white rabbits: In order to examine the usefulness of the present compound as a preventive or therapeutic agent for glaucoma or ocular hypertension, an intraocular pressure lowering effect when the present compound was administered to Japanese white rabbits (sex: male) was evaluated and studied. As the test compound, Compound A was used. […]
Administration method and measurement method: Just before any of the test liquids was administered, one drop of 0.4% oxybuprocaine hydrochloride eye drop was instilled into both eyes of each experimental animal to achieve local anesthesia, and the intraocular pressure was measured using an applanation tonometer. This intraocular pressure was determined as an initial intraocular pressure. […]
After the test liquid was administered, the intraocular pressure of both eyes of each experimental animal was measured at predetermined times (at 1, 2, 4 and 6 hours after administration). […]
Calculation of intraocular pressure reduction degree: The intraocular pressure reduction degree of each test compound administration group at each measurement time was calculated from the following calculation formula. Among the obtained intraocular pressure reduction degrees at respective measurement times, the maximum value was determined as a maximum intraocular pressure reduction degree. […]

COC(=O)N(C)CC#Cc1nc(N)c2ncn([C@@H]3O[C@H](C(=O)NC4CC4)C(O)C3O)c2n1 (some centres unmarked) [Compound A]
intraocular pressure lowering action (Japanese white rabbits, eye drop): exhibited an intraocular pressure lowering action | Maximum intraocular pressure reduction degree (male Japanese white rabbits, 0.01% (w/v) eye drop, single dose into one eye, maximum of 1, 2, 4 and 6 hours, average of 5 cases): 3.9 mmHg
